Reference: patent publication US20050026933A1, “Use of a combination of an epidermal growth factor receptor kinase inhibitor and cytotoxic agents for treatment and inhibition of cancer” (Wyeth Holdings Corporation, priority 2003, published 2005)

Columns and labels:
[1] = test system: GEO colon carcinoma cells; experiment: GEO colon carcinoma xenograft in athymic nu/nu mice; assay type: in vivo, human; conditions: for RTG (Relative Tumor Growth): EKB-569 80 mg/kg PO, paclitaxel 25 mg/kg IV
Description: (§1) In all of the experiments, athymic nu/nu female mice (Charles River Laboratories) were injected SC (subcutaneously) with either 7×10^6 or 1×10^7 LoVo colon carcinoma cells or 5×10^6 GEO colon carcinoma cells. When tumors attained a mass of between 80 and 120 mg (Day 0), animals were randomized into treatment groups each containing between 5 and 20 animals, (dependent upon the experiment). Mice were treated orally (PO) with EKB-569 or vehicle control for 15 to 20 days, depending upon the experiment. EKB-569 was formulated in 0.5% Methocel, 0.4% Tween 80. Cytotoxic agents, (paclitaxel, 5-FU and cisplatin), were given either by […] (IP) or intravenous (IV) administration on either days 1, 5 and 9 or on days 1, 5, 9 and 13, depending upon the experiment. Tumor mass ([Length×Width^2]/2) was determined every seven days post staging for up to 35 days. The relative tumor growth, (Mean tumor mass on day measured divided by the mean tumor mass on day zero), and the percent Tumor/Control, (% T/C), was then calculated for each treatment group for as long as the control group remained. The % T/C is defined as the Mean Relative Tumor Growth of the Treated Group divided by the Mean Relative Tumor Growth of Vehicle Control Group multiplied by 100. The data was analyzed via Student's one-tailed t-test. A p-value≦0.05 indicates a statistically significant reduction in relative tumor growth of treated group compared with the vehicle control group or drug treated group.
In the experiment of Table 1 (GEO), 80 mg/kg EKB-569 was administered PO for 15 consecutive days while 25 mg/kg paclitaxel was administered IV on days 1, 5, 9 and 13 (Table 1). The results obtained in this study were identical to that in the LoVo study except that there was up to 85% tumor growth inhibition seen in the group receiving combination therapy.
The activity of EKB-569 in combination with 5-FU was assessed in LoVo and GEO xenografts. In the LoVo experiment, 20 mg/kg EKB-569 was administered for 20 consecutive days while 40 mg/kg 5-FU was administered IP on days 1, 5, 9 and 13. In the GEO experiment, 80 mg/kg EKB-569 was administered PO for 15 consecutive days while 40 mg/kg 5-FU was administered IP on days 1, 5, 9 and 13. […] At all time points, tumor size was smaller in the combination group compared with the single agent groups in these experiments. […]

[2] = test system: LoVo colon carcinoma cells; experiment: LoVo colon carcinoma xenograft in athymic nu/nu mice; assay type: in vivo, mouse xenograft of human tumor cells; conditions: 5-FU study LoVo, EKB-569 20 mg/kg PO days 1-20, 5-FU 40 mg/kg IP days 1, 5, 9, 13
Description: as §1
The activity of EKB-569 in combination with paclitaxel was assessed using the human colon carcinoma lines LoVo and GEO. In the LoVo experiment, 20 mg/kg EKB-569 was administered PO for 20 consecutive days. Twenty mg/kg paclitaxel prepared in 2% cremophor el and 2% ethanol was administered IV on days 1, 5, 9 and 13.
The activity of EKB-569 in combination with 5-FU was assessed in LoVo and GEO xenografts. In the LoVo experiment, 20 mg/kg EKB-569 was administered for 20 consecutive days while 40 mg/kg 5-FU was administered IP on days 1, 5, 9 and 13. In the GEO experiment, 80 mg/kg EKB-569 was administered PO for 15 consecutive days while 40 mg/kg 5-FU was administered IP on days 1, 5, 9 and 13. […] At all time points, tumor size was smaller in the combination group compared with the single agent groups in these experiments.
The activity of EKB-569 in combination with cisplatin was assessed in LoVo and GEO xenografts. In the LoVo study, 20 mg/kg EKB-569 was administered PO for 20 consecutive days while 3 mg/kg cisplatin was administered IP on days 1, 5 and 9. In the GEO experiment, 80 mg/kg EKB-569 was administered PO for 15 consecutive days while 3 mg/kg cisplatin was administered I P on days 1, 5, 9 and 13. In both these experiments, combination therapy gave statistically significant, (p≦0.05), tumor growth inhibition than either drug alone at 3 out of 4 time points examined.

[3] = paclitaxel study, Day 6, EKB-569 80 mg/kg PO days 1-15, paclitaxel 25 mg/kg IV days 1, 5, 9, 13
[4] = paclitaxel study, Day 15, EKB-569 80 mg/kg PO days 1-15, paclitaxel 25 mg/kg IV days 1, 5, 9, 13
[5] = 5-FU study GEO, Day 8, EKB-569 80 mg/kg PO days 1-15, 5-FU 40 mg/kg IP days 1, 5, 9, 13
[6] = 5-FU study GEO, Day 14, EKB-569 80 mg/kg PO days 1-15, 5-FU 40 mg/kg IP days 1, 5, 9, 13
[7] = 5-FU study GEO, Day 21, EKB-569 80 mg/kg PO days 1-15, 5-FU 40 mg/kg IP days 1, 5, 9, 13
[8] = 5-FU study GEO, Day 28, EKB-569 80 mg/kg PO days 1-15, 5-FU 40 mg/kg IP days 1, 5, 9, 13

SMILES | % T/C [1, 3] | RTG (Relative Tumor Growth) ([1]; paclitaxel study, Day 6) | % T/C [1, 4] | RTG (Relative Tumor Growth) ([1]; paclitaxel study, Day 15) | RTG (Relative Tumor Growth) ([1]; paclitaxel study, Day 21) | RTG (Relative Tumor Growth) ([1]; paclitaxel study, Day 28) | % T/C ([2]; Day 7) | % T/C ([2]; Day 14) | % T/C ([2]; Day 21) | % T/C ([2]; Day 29) | % T/C [1, 5] | % T/C [1, 6] | % T/C [1, 7] | % T/C [1, 8]
CC(=O)O[C@H]1C(=O)[C@@]2(C)[C@H]([C@H](OC(=O)c3ccccc3)[C@]3(O)C[C@H](OC(=O)[C@H](O)[C@@H](NC(=O)c4ccccc4)c4ccccc4)C(C)=C1C3(C)C)[C@]1(OC(C)=O)CO[C@@H]1C[C@@H]2O [Paclitaxel, paclitaxel] | 46% | 1.63 | 43% | 2.69 | 2.24 | 2.70 | – | – | – | – | – | – | – | –
O=c1[nH]cc(F)c(=O)[nH]1 [5-FU, 5-Fluorouracil] | – | – | – | – | – | – | 59% | 63% | 85% | 77% | 58% | 47% | 50% | 60%
CCOc1cc2ncc(C#N)c(Nc3ccc(F)c(Cl)c3)c2cc1NC(=O)C=CCN(C)C [EKB-569, 4-dimethylamino-but-2-enoic acid [4-(3-chloro-4-fluoro-phenylamino)-3-cyano-7-ethoxy-quinolin-6-yl]-amide] | 51% | 1.78 | 53% | 3.33 | 5.19 | 5.78 | 84% | 67% | 77% | 95% | 55% | 54% | 81% | 95%
